Reference: patent EP0606804B1, “Marker for neurotensin receptor” (MARTINEX R & D INC., priority 1992, dated 2001)
Where no end group is shown, it is not given here. FTC = fluorescein thiocarbamyl

Experiments:
[1] = Toxicity (statement, no method given)
Solubility = assay type: physicochemical; settings: distilled water or aqueous buffer
Stability / shelf life = assay type: physicochemical; settings: protected from light and maintained at 4°C
[2] = molecular target: T1, neurotensin receptor on purified brain membranes from adult male mice (mouse, UniProt O88319 1-424); test: competition with 0.1 nM 125I-Tyr3-neurotensin on mouse brain membranes, filtration, 20 min at 22 C
T1 construct: whole, on cells; This is the native receptor in a brain membrane preparation, not on intact cells; also called mouse brain membranes
T1 sequence (O88319 whole entry): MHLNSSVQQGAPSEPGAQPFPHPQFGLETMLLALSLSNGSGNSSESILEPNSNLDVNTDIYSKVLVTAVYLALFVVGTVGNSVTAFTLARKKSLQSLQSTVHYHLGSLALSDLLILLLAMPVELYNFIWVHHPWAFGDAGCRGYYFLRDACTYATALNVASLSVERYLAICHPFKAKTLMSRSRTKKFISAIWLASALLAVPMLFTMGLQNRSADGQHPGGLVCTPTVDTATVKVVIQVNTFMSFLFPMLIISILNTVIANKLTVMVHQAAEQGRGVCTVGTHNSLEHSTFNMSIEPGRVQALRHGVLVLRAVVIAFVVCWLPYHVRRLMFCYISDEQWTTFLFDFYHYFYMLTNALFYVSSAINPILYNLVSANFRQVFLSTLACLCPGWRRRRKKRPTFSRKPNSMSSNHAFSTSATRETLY

IC50 [2] | Molecule | toxicity [1] | solubility (Solubility) | stability (Stability / shelf life)
– | CC[C@H](C)[C@H](NC(=O)[C@H](Cc1ccc(O)cc1)NC(=O)[C@@H]1CCCN1C(=O)[C@H](CCCNC(=N)N)NC(=O)[C@H](CCCNC(=N)N)NC(=O)[C@@H]1CCCN1C(=O)[C@H](CCCCN)NC(=O)[C@H](CC(N)=O)NC(=O)[C@H](CCC(=O)O)NC(=O)[C@H](Cc1ccc(O)cc1)NC(=O)[C@H](CC(C)C)NC(=O)[C@H](CCC(=O)O)NC(=S)Nc1ccc2c(c1)C(=O)OC21c2ccc(O)cc2Oc2cc(O)ccc21)C(=O)N[C@@H](CC(C)C)C(=O)O [N-FTC-[Glu^1]NT, N-fluoresceyl thiocarbamyl-[Glu^1] neurotensin] | 100% non-toxic | freely soluble | stable
0.55 nM | {FTC}-ELYENKPRRPYIL (Synthetic 13-residue neurotensin analogue with Glu in place of pGlu at position 1, carrying one fluorescein per peptide; Molecular weight 2080; also called N-FTC-[Glu1]NT; FTC-[Glu1]NT) [N-fluoresceyl thiocarbamyl-[Glu1] neurotensin] | – | – | –
